Test results: PubChem BioAssay AID330 (DTP/NCI, 2004)
Several values for one entry are separate records, joined by “and”; a condition that tells them apart may be missing. Equal entries are not always repeated. Inconclusive results and toxic doses are left out.

Tested on: P388 leukemia ip, CD2F1 mice, survival T/C
Test: NCI In Vivo Anticancer Drug Screen. Data for tumor model P388 Leukemia (intraperitoneal) in CD2F1 (CDF1) mice
Settings: endpoint: median survival time, higher = longer survival
Procedure, shortened: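 Mice carrying the transplanted tumor received test compound or vehicle. Survival was recorded in each group, and the value is the treated-group measurement divided by that of the vehicle-treated control group.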

[1] = dose: 50.0 mg/kg/injection, schedule: Q01DX005 (ip), vehicle: saline with Tween-80
[2] = dose: 100.0 mg/kg/injection, schedule: Q01DX005 (ip), vehicle: saline with Tween-80
[3] = dose: 200.0 mg/kg/injection, schedule: Q01DX005 (ip), vehicle: saline with Tween-80
[4] = dose: 50.0 mg/kg/injection, schedule: Q01DX005 (ip), vehicle: Klucel (hydroxypropylcellulose) (HPC)
[5] = dose: 100.0 mg/kg/injection, schedule: Q01DX005 (ip), vehicle: Klucel (hydroxypropylcellulose) (HPC)
[6] = dose: 200.0 mg/kg/injection, schedule: Q01DX005 (ip), vehicle: Klucel (hydroxypropylcellulose) (HPC)

Cc1c2cc[n+](C)cc2c(COC2OC(CO)C(O)C2O)c2c3ccccc3n(C)c12 (centres undefined)
T/C (dose: 60.0 mg/kg/injection, schedule: Q01DX005 (ip), vehicle: Klucel (hydroxypropylcellulose) (HPC)): 123 % of control

Cc1c(NC(=S)Nc2ccccc2)c(=O)n(-c2ccccc2)n1C
T/C [1]: 93 % of control
T/C [2]: 93 % of control
T/C [3]: 89 % of control

CN(C)c1ncnc2c1ncn2[C@H]1CCC[C@@H]1O
T/C (dose: 0.37 mg/kg/injection, schedule: Q01DX005 (ip), vehicle: Klucel (hydroxypropylcellulose) (HPC)): 109 % of control
T/C (dose: 0.75 mg/kg/injection, schedule: Q01DX005 (ip), vehicle: Klucel (hydroxypropylcellulose) (HPC)): 110 % of control
T/C (dose: 1.5 mg/kg/injection, schedule: Q01DX005 (ip), vehicle: Klucel (hydroxypropylcellulose) (HPC)): 112 % of control and 116 % of control

C=Cn1c([N+](=O)[O-])cnc1/C=C/c1ccc(C(=O)OCCN2CCOCC2)cc1
T/C (dose: 25.0 mg/kg/injection, schedule: Q04DX002 (ip), vehicle: saline with Tween-80): 101 % of control
T/C (dose: 50.0 mg/kg/injection, schedule: Q04DX002 (ip), vehicle: saline with Tween-80): 101 % of control
T/C (dose: 100.0 mg/kg/injection, schedule: Q04DX002 (ip), vehicle: saline with Tween-80): 103 % of control and 90 % of control

c1cc2cc(c1)CSCc1cccc(c1)CSCc1cccc(c1)CSC2
T/C (dose: 50.0 mg/kg/injection, schedule: Q04DX002 (ip), vehicle: saline): 96 % of control
T/C (dose: 100.0 mg/kg/injection, schedule: Q04DX002 (ip), vehicle: saline): 93 % of control
T/C (dose: 200.0 mg/kg/injection, schedule: Q04DX002 (ip), vehicle: saline): 93 % of control

CCCCNC1(N(C)C)N=C(N(C)C)N=C(N(C)C)O1 (centres undefined)
T/C (dose: 50.0 mg/kg/injection, schedule: Q01DX005 (ip), vehicle: saline): 88 % of control
T/C (dose: 100.0 mg/kg/injection, schedule: Q01DX005 (ip), vehicle: saline): 89 % of control
T/C (dose: 200.0 mg/kg/injection, schedule: Q01DX005 (ip), vehicle: saline): 95 % of control

CCN(CC)C(=O)c1ccccc1-c1ccccc1C(=O)N(CC)CC
T/C (dose: 100.0 mg/kg/injection, schedule: Q04DX003 (ip), vehicle: saline): 101 % of control
T/C (dose: 200.0 mg/kg/injection, schedule: Q04DX003 (ip), vehicle: saline): 98 % of control
T/C (dose: 400.0 mg/kg/injection, schedule: Q04DX003 (ip), vehicle: saline): 95 % of control

c1ccc(COCC(COCc2ccccc2)(COCc2ccccc2)COCc2ccccc2)cc1
T/C (dose: 12.5 mg/kg/injection, schedule: Q01DX009 (ip), vehicle: saline + alcohol): 105 % of control
T/C (dose: 25.0 mg/kg/injection, schedule: Q01DX009 (ip), vehicle: saline + alcohol): 104 % of control
T/C (dose: 50.0 mg/kg/injection, schedule: Q01DX009 (ip), vehicle: saline + alcohol): 97 % of control

COC(=O)c1ccccc1NC(c1ccccn1)c1ccc2cccnc2c1O (centres undefined)
T/C (dose: 50.0 mg/kg/injection, schedule: Q01DX009 (ip), vehicle: DMSO): 111 % of control
T/C (dose: 50.0 mg/kg/injection, schedule: Q01DX009 (ip), vehicle: Klucel (hydroxypropylcellulose) (HPC)): 109 % of control
T/C (dose: 100.0 mg/kg/injection, schedule: Q01DX009 (ip), vehicle: DMSO): 116 % of control
T/C (dose: 100.0 mg/kg/injection, schedule: Q01DX009 (ip), vehicle: Klucel (hydroxypropylcellulose) (HPC)): 94 % of control
T/C (dose: 200.0 mg/kg/injection, schedule: Q01DX009 (ip), vehicle: Klucel (hydroxypropylcellulose) (HPC)): 106 % of control
T/C (dose: 400.0 mg/kg/injection, schedule: Q01DX009 (ip), vehicle: Klucel (hydroxypropylcellulose) (HPC)): 100 % of control

COc1cc2c(c(OC)c1OC)-c1ccc(SC)c(=O)cc1[C@@H](NC(=O)NCCCl)CC2
T/C (dose: 1.5 mg/kg/injection, schedule: Q01DX009 (ip), vehicle: water): 110 % of control
T/C (dose: 6.0 mg/kg/injection, schedule: Q01DX009 (ip), vehicle: water): 150 % of control
T/C (dose: 12.0 mg/kg/injection, schedule: Q01DX009 (ip), vehicle: water): 155 % of control
T/C (dose: 13.5 mg/kg/injection, schedule: Q01DX009 (ip), vehicle: water): 150 % of control and 163 % of control

O=C1c2ccccc2C(=O)c2c1cccc2-c1ccccc1
T/C [4]: 86 % of control
T/C [5]: 87 % of control
T/C [6]: 88 % of control

O=[N+]([O-])c1cc2cccc([N+](=O)[O-])c2o1
T/C [4]: 100 % of control
T/C [5]: 109 % of control
T/C [6]: 102 % of control

CCCCC1(Cc2ccccc2)SC(=O)NC1=O (centres undefined)
T/C [1]: 98 % of control
T/C [2]: 100 % of control
T/C [3]: 91 % of control

C1=CNc2ccccc2N=C1
T/C (dose: 50.0 mg/kg/injection, schedule: Q01DX009 (ip), vehicle: saline): 103 % of control
T/C (dose: 100.0 mg/kg/injection, schedule: Q01DX009 (ip), vehicle: saline): 112 % of control
T/C (dose: 200.0 mg/kg/injection, schedule: Q01DX009 (ip), vehicle: saline): 99 % of control
